Measured values published in US20060211026A1, “Methods for assessing emphysema” (Roche Palo Alto LLC, priority 2005, published 2006).

Key:
Type in all cases: in vivo, Sprague-Dawley rats
[1] = tested on: gene expression in lung right lobes of 8 months smoked rats; experiment: Lung gene expression by Affymetrix microarray in smoke-exposed rats
Experimental: (§1) (B) Adult male Sprague-Dawley rats were exposed daily to 10 cigarettes/rat for 8 months (control rats were exposed to air) to establish emphysema lesions. […] Supernatant from homogenized lung tissue was analyzed for concentration of tropoelastin by ELISA (using rabbit anti-tropoelastin; Elastin Products Co.).
Three individual lung right lobes from each condition were processed to extract mRNA according to standard Affymetrix protocols, and samples hybridized to Affymetrix Rat Expression Set 230 microarrays. Gene expression was analyzed using the Bioconductor package (Gentleman et al., Genome Biol (2004) v. 5), and differentially expressed genes selected using ANOVA model followed by Dunnett's test.

[2] = tested on: tropoelastin; experiment: Tropoelastin ELISA in homogenized lung tissue of smoke-exposed rats; conditions: oral daily 30 days after 8 months smoke; ATRA 3 mg/kg, R667 0.07-0.7 mg/kg; FIG. 1
Experimental: FIG. 1 depicts the amount of tropoelastin (in ng) measured in rats after treatment as set forth in Example 1(B).
as §1

[3] = tested on: gene expression in lung right lobes of 8 months smoked rats; experiment: Lung gene expression by quantitative PCR in smoke-exposed rats; conditions: for Adam17 gene expression relative to 8 months smoked rats / Angpt1 gene expression relative to 8 months smoked rats / Areg gene expression relative to 8 months smoked rats / Colla1 gene expression relative to 8 months smoked rats / Crabp2 gene expression relative to 8 months smoked rats / Csf2 gene expression relative to 8 months smoked rats / Cxcl1 gene expression relative to 8 months smoked rats / Cxcl2 gene expression relative to 8 months smoked rats / Cxcl5 gene expression relative to 8 months smoked rats / Cyp26a1 gene expression relative to 8 months smoked rats / EGFR gene expression relative to 8 months smoked rats / Eln gene expression relative to 8 months smoked rats / FGF7 gene expression relative to 8 months smoked rats / Flt1 gene expression relative to 8 months smoked rats / Hif1a gene expression relative to 8 months smoked rats / HpGF gene expression relative to 8 months smoked rats / Hyou1 gene expression relative to 8 months smoked rats / Il6 gene expression relative to 8 months smoked rats / Il8ra/CXCR1 gene expression relative to 8 months smoked rats / Il8rb/CXCR2 gene expression relative to 8 months smoked rats / Kdr gene expression relative to 8 months smoked rats / Mmp9 gene expression relative to 8 months smoked rats / Mmp12 gene expression relative to 8 months smoked rats / PDGFA gene expression relative to 8 months smoked rats / Pgf gene expression relative to 8 months smoked rats / Rbp1 gene expression relative to 8 months smoked rats / Serpina1 gene expression relative to 8 months smoked rats / Sftpa1 gene expression relative to 8 months smoked rats / Sftpb gene expression relative to 8 months smoked rats / Slpi gene expression relative to 8 months smoked rats / TNF gene expression relative to 8 months smoked rats / Tek gene expression relative to 8 months smoked rats / Tgfb1 gene expression relative to 8 months smoked rats / Tgfbr2 gene expression relative to 8 months smoked rats / Tgm2 gene expression relative to 8 months smoked rats / Timp3 gene expression relative to 8 months smoked rats / VEGFa gene expression relative to 8 months smoked rats: rat lung
Experimental: as §1
RNA prepared from snap-frozen lung right lobes was analyzed for gene expression by quantitative PCR, using ABI Taqman following standard procedures.

[4] = R667 0.07 mg/kg oral daily 30 days
[5] = R667 0.15 mg/kg oral daily 30 days
[6] = R667 0.7 mg/kg oral daily 30 days

Compound: CC1(C)CCC(C)(C)c2cc(Cn3cccn3)c(C=Cc3ccc(C(=O)O)cc3)cc21 [R667, 4-[2-(5,5,8,8-tetramethyl-3-pyrazol-1-ylmethyl-5,6,7,8-tetrahydronaphthalen2-yl)-vinyl]-benzoic acid]
- ELN expression level from microarray, relative to the 8 months smoked rat [1, 4]: 2.8 fold
- VEGF expression level from microarray, relative to the 8 months smoked rat [1, 4]: 1.7 fold
- ELN expression level from microarray, relative to the 8 months smoked rat [1, 5]: 3.1 fold
- VEGF expression level from microarray, relative to the 8 months smoked rat [1, 5]: 1.5 fold
- ELN expression level from microarray, relative to the 8 months smoked rat [1, 6]: 3.8 fold
- VEGF expression level from microarray, relative to the 8 months smoked rat [1, 6]: 2.4 fold
- Tropoelastin in lung tissue (effect of treatment) [2]: partially restored
- Adam17 gene expression relative to 8 months smoked rats [3, 4]: 3.5
- Angpt1 gene expression relative to 8 months smoked rats [3, 4]: 3.8
- Areg gene expression relative to 8 months smoked rats [3, 4]: 5.9
- Colla1 gene expression relative to 8 months smoked rats [3, 4]: 7.1
- Crabp2 gene expression relative to 8 months smoked rats [3, 4]: 2.0
- Csf2 gene expression relative to 8 months smoked rats [3, 4]: 1.5
- Cxcl1 gene expression relative to 8 months smoked rats [3, 4]: 3.3
- Cxcl2 gene expression relative to 8 months smoked rats [3, 4]: 2.3
- Cxcl5 gene expression relative to 8 months smoked rats [3, 4]: 50.1
- Cyp26a1 gene expression relative to 8 months smoked rats [3, 4]: 2.2
- EGFR gene expression relative to 8 months smoked rats [3, 4]: 4.8
- Eln gene expression relative to 8 months smoked rats [3, 4]: 5.6
- FGF7 gene expression relative to 8 months smoked rats [3, 4]: 2.1
- Flt1 gene expression relative to 8 months smoked rats [3, 4]: 1.7
- Hif1a gene expression relative to 8 months smoked rats [3, 4]: 1.7
- HpGF gene expression relative to 8 months smoked rats [3, 4]: 3.0
- Hyou1 gene expression relative to 8 months smoked rats [3, 4]: 2.7
- Il6 gene expression relative to 8 months smoked rats [3, 4]: 1.8
- Il8ra/CXCR1 gene expression relative to 8 months smoked rats [3, 4]: 3.8
- Il8rb/CXCR2 gene expression relative to 8 months smoked rats [3, 4]: 2.0
- Kdr gene expression relative to 8 months smoked rats [3, 4]: 1.3
- Mmp9 gene expression relative to 8 months smoked rats [3, 4]: 1.7
- Mmp12 gene expression relative to 8 months smoked rats [3, 4]: 4.9
- PDGFA gene expression relative to 8 months smoked rats [3, 4]: 4.3
- Pgf gene expression relative to 8 months smoked rats [3, 4]: 1.6
- Rbp1 gene expression relative to 8 months smoked rats [3, 4]: 2.1
- Serpina1 gene expression relative to 8 months smoked rats [3, 4]: 2.3
- Sftpa1 gene expression relative to 8 months smoked rats [3, 4]: 5.4
- Sftpb gene expression relative to 8 months smoked rats [3, 4]: 1.9
- Slpi gene expression relative to 8 months smoked rats [3, 4]: 3.6
- TNF gene expression relative to 8 months smoked rats [3, 4]: 3.3
- Tek gene expression relative to 8 months smoked rats [3, 4]: 1.4
- Tgfb1 gene expression relative to 8 months smoked rats [3, 4]: 1.4
- Tgfbr2 gene expression relative to 8 months smoked rats [3, 4]: 2.0
- Tgm2 gene expression relative to 8 months smoked rats [3, 4]: 16.2
- Timp3 gene expression relative to 8 months smoked rats [3, 4]: 3.5
- VEGFa gene expression relative to 8 months smoked rats [3, 4]: 1.6
- Adam17 gene expression relative to 8 months smoked rats [3, 5]: 3.6
- Angpt1 gene expression relative to 8 months smoked rats [3, 5]: 1.8
- Areg gene expression relative to 8 months smoked rats [3, 5]: 3.7
- Colla1 gene expression relative to 8 months smoked rats [3, 5]: 8.4
- Crabp2 gene expression relative to 8 months smoked rats [3, 5]: 1.5
- Csf2 gene expression relative to 8 months smoked rats [3, 5]: 1.9
- Cxcl1 gene expression relative to 8 months smoked rats [3, 5]: 2.9
- Cxcl2 gene expression relative to 8 months smoked rats [3, 5]: 1.6
- Cxcl5 gene expression relative to 8 months smoked rats [3, 5]: 50.0
- Cyp26a1 gene expression relative to 8 months smoked rats [3, 5]: 3.9
- EGFR gene expression relative to 8 months smoked rats [3, 5]: 3.2
- Eln gene expression relative to 8 months smoked rats [3, 5]: 6.1
- FGF7 gene expression relative to 8 months smoked rats [3, 5]: 2.1
- Flt1 gene expression relative to 8 months smoked rats [3, 5]: 1.8
- Hif1a gene expression relative to 8 months smoked rats [3, 5]: 1.4
- HpGF gene expression relative to 8 months smoked rats [3, 5]: 3.1
- Hyou1 gene expression relative to 8 months smoked rats [3, 5]: 3.3
- Il6 gene expression relative to 8 months smoked rats [3, 5]: 2.4
- Il8ra/CXCR1 gene expression relative to 8 months smoked rats [3, 5]: 4.5
- Il8rb/CXCR2 gene expression relative to 8 months smoked rats [3, 5]: 2.0
- Kdr gene expression relative to 8 months smoked rats [3, 5]: 1.9
- Mmp9 gene expression relative to 8 months smoked rats [3, 5]: 1.5
- Mmp12 gene expression relative to 8 months smoked rats [3, 5]: 5.9
- PDGFA gene expression relative to 8 months smoked rats [3, 5]: 2.9
- Pgf gene expression relative to 8 months smoked rats [3, 5]: 0.9
- Rbp1 gene expression relative to 8 months smoked rats [3, 5]: 3.5
- Serpina1 gene expression relative to 8 months smoked rats [3, 5]: 1.5
- Sftpa1 gene expression relative to 8 months smoked rats [3, 5]: 4.4
- Sftpb gene expression relative to 8 months smoked rats [3, 5]: 2.1
- Slpi gene expression relative to 8 months smoked rats [3, 5]: 1.6
- TNF gene expression relative to 8 months smoked rats [3, 5]: 4.2
- Tek gene expression relative to 8 months smoked rats [3, 5]: 1.3
- Tgfb1 gene expression relative to 8 months smoked rats [3, 5]: 2.0
- Tgfbr2 gene expression relative to 8 months smoked rats [3, 5]: 1.5
- Tgm2 gene expression relative to 8 months smoked rats [3, 5]: 28.3
- Timp3 gene expression relative to 8 months smoked rats [3, 5]: 2.9
- VEGFa gene expression relative to 8 months smoked rats [3, 5]: 2.3
- Adam17 gene expression relative to 8 months smoked rats [3, 6]: 7.8
- Angpt1 gene expression relative to 8 months smoked rats [3, 6]: 3.1
- Areg gene expression relative to 8 months smoked rats [3, 6]: 7.2
- Colla1 gene expression relative to 8 months smoked rats [3, 6]: 7.9
- Crabp2 gene expression relative to 8 months smoked rats [3, 6]: 1.4
- Csf2 gene expression relative to 8 months smoked rats [3, 6]: 2.9
- Cxcl1 gene expression relative to 8 months smoked rats [3, 6]: 6.5
- Cxcl2 gene expression relative to 8 months smoked rats [3, 6]: 3.4
- Cxcl5 gene expression relative to 8 months smoked rats [3, 6]: 81.6
- Cyp26a1 gene expression relative to 8 months smoked rats [3, 6]: 3.7
- EGFR gene expression relative to 8 months smoked rats [3, 6]: 4.0
- Eln gene expression relative to 8 months smoked rats [3, 6]: 9.4
- FGF7 gene expression relative to 8 months smoked rats [3, 6]: 1.6
- Flt1 gene expression relative to 8 months smoked rats [3, 6]: 2.6
- Hif1a gene expression relative to 8 months smoked rats [3, 6]: 2.0
- HpGF gene expression relative to 8 months smoked rats [3, 6]: 5.6
- Hyou1 gene expression relative to 8 months smoked rats [3, 6]: 5.8
- Il6 gene expression relative to 8 months smoked rats [3, 6]: 4.5
- Il8ra/CXCR1 gene expression relative to 8 months smoked rats [3, 6]: 4.2
- Il8rb/CXCR2 gene expression relative to 8 months smoked rats [3, 6]: 2.5
- Kdr gene expression relative to 8 months smoked rats [3, 6]: 1.7
- Mmp9 gene expression relative to 8 months smoked rats [3, 6]: 1.9
- Mmp12 gene expression relative to 8 months smoked rats [3, 6]: 7.3
- PDGFA gene expression relative to 8 months smoked rats [3, 6]: 4.5
- Pgf gene expression relative to 8 months smoked rats [3, 6]: 2.7
- Rbp1 gene expression relative to 8 months smoked rats [3, 6]: 3.9
- Serpina1 gene expression relative to 8 months smoked rats [3, 6]: 2.9
- Sftpa1 gene expression relative to 8 months smoked rats [3, 6]: 7.0
- Sftpb gene expression relative to 8 months smoked rats [3, 6]: 2.9
- Slpi gene expression relative to 8 months smoked rats [3, 6]: 4.4
- TNF gene expression relative to 8 months smoked rats [3, 6]: 4.0
- Tek gene expression relative to 8 months smoked rats [3, 6]: 1.3
- Tgfb1 gene expression relative to 8 months smoked rats [3, 6]: 3.2
- Tgfbr2 gene expression relative to 8 months smoked rats [3, 6]: 2.1
- Tgm2 gene expression relative to 8 months smoked rats [3, 6]: 24.6
- Timp3 gene expression relative to 8 months smoked rats [3, 6]: 4.8
- VEGFa gene expression relative to 8 months smoked rats [3, 6]: 2.9
- Restoration of smoke-suppressed gene expression in lung ([3]; rats smoked 8 months, then R667 daily 30 days): restore expression of these genes to near-normal levels

Compound: CC1=C(/C=C/C(C)=C/C=C/C(C)=C/C(=O)O)C(C)(C)CCC1 [ATRA, all-trans retinoic acid, reference compound]
- Tropoelastin in lung tissue (effect of treatment) [2]: partially restored
